Experimental data as given in patent US9925235B2, “Tilapia piscidins for use in enhancement of wound healing” (Academia Sinica, priority 2015, dated 2018).
Peptide text beside a SMILES is read from it.

Tests used:
MRSA [1] = test: Mouse model of MRSA sepsis, TP3; format: in vivo, Balb/c mice; conditions: for Mean ± SD count, Blood / Mean ± SD count, Liver / Mean ± SD count, Mesenteric lymph nodes / Mean ± SD count, Peritoneum / Mean ± SD count, Spleen: 48 h after injection; for survival rate: 8 days after MRSA infection, i.p. 10 min after MRSA, TP3 0.005 mg/g, vancomycin and methicillin 0.01 mg/g; for % lethality: monitored for 2 day after injection, MRSA 1 × 10^6 CFU i.p.
Protocol: (§1) Female Balb/c mice (6-8 weeks old) were injected intraperitoneally with 10^6 CFU MRSA per mouse. Ten minutes after MRSA injection, mice were injected intraperitoneally with vancomycin (0.01 mg/g mouse body weight), methicilin (0.01 mg/g mouse body weight), or TP3 (0.005 mg/g mouse body weight). In a second set of experiments, mice were given intraperitoneal injections of TP3 (0.005 mg/g mouse body weight) at 10, 60, 120, or 180 min after MRSA injection. The survival rate and status were recorded every 24 h for up to 192 h. To examine bacterial dissemination, mice were sacrificed at 48 h after injection with antibiotics or TP3, and the bacterial numbers in blood, peritoneum, spleen, liver, and mesenteric lymph nodes were recorded. Colony counts from the diluted bacterial solutions were expressed relative to those at the start of treatment. These experiments consisted of four groups, and each group contained 5 mice.

MRSA [2] = test: Histology and IHC of wound tissue, TP3; format: in vivo, Balb/c mice; conditions: wounds
Protocol: Skin tissues were removed and fixed as previously described. In brief, the cryosections were fixed with 4% formaldehyde, and the tissue samples were stained with hematoxylin/eosin, Giemsa, or Gram stain. IHC was analyzed by three independent investigators. Images were taken using a BX-51 microscope (Olympus, Japan).

MRSA [3] = test: Mouse model of MRSA sepsis, TP4; format: in vivo, Balb/c mice; conditions: for Mean ± SD count, Blood / Mean ± SD count, Liver / Mean ± SD count, Mesenteric lymph nodes / Mean ± SD count, Peritoneum / Mean ± SD count, Spleen: 48 hours after the last treatment; for survival rate: 8 days after MRSA infection, i.p. 10 min after MRSA, TP4 0.005 mg/g, vancomycin and methicillin 0.01 mg/g; for % lethality: monitored for 2 day after injection, MRSA 10^6 CFU i.p.
Protocol: as §1, with “weight), methicillin” for “weight), methicilin”, “or TP4” for “or TP3”, “of TP4” for “of TP3”, “injection. Survival” for “injection. The survival”, “or TP4,” for “or TP3,”, “contained 10” for “contained 5”
Infected mice were untreated, or treated with TP4, methicillin, or vancomycin via i.p. injection. Bacterial numbers in blood, peritoneum, spleen, liver, and mesenteric lymph nodes were subsequently recorded. Colony counts from the diluted bacterial solutions are expressed relative to those at the start of treatment. Each value represents the mean value from three determinations±standard deviation (SD).

MRSA [4] = test: Mouse wound healing model, wound closure and microbial load, TP3; format: in vivo, Balb/c mice
Protocol: Female Balb/c mice (6-8 weeks old) were used for wound healing experiments. All mice were housed individually to prevent fighting and further damage to the wounds, and they were provided with food and water ad libitum. Mice were maintained on a 12 h light: dark cycle at room temperature, and acclimatized to the environment for at least a week before use in experiments. All researchers wore caps, sterile gloves, gowns, and shoe covers when handling mice. Hair was removed from the back of the mice by shaving, and a full thickness wound (1 cm in diameter) was then created in the exposed region. Each wound was inoculated with 50 μl of broth mix containing 10^6 cfu (colony forming units) of S. aureus. At 5 min after inoculation, 50 μl TP3 (2 mg/ml) in a total volume of 0.1 ml were applied. Thirty minutes after treatment, wounds were covered with Tegaderm (3M, St. Paul, Minn.) to maintain uniformity, and to prevent the mice from removing the treatments. Based on initial experiments, we examined the wounds at 0, 3, 5 and 19 days post-injury, so as not to disturb the infection. Such examinations captured the transitions from inflammatory to regenerative, and regenerative to resolving phases of wound healing. Animals were subsequently euthanized by CO2 inhalation and the wounds assessed. Four individuals in each group were examined at each time point for each experiment. Each wound was measured and then removed from the animal, with unwounded skin taken from the contralateral dorsum as a control. Each biopsy was bisected with three sections being used for tensiometry and histology, and two sections for quantitative determination of microbial load. Wound healing studies were repeated in triplicate.
Tracings were taken immediately after injury. For uncontaminated wounds, wound size was determined every second day. For contaminated wounds, mice were euthanized at days 3, 5, 19 and tracings of the wound edges were made. Wound areas were determined using the Macintosh Adobe Photoshop program, Histogram Analysis. The percentage of wound contraction was calculated as follows: % Wound contraction=(A0−At)/A0×100, where A0 is the original wound area, and At is the area of wound at the time of biopsy on every two days, accordingly.
Multidrug-resistant strains of Staphylococcus aureus commonly associated with human wound infections were selected to generate a polymicrobial solution. The MRSA strain is a clinical isolate from stool obtained from Taipei City Hospital (Heping Fuyou branch). The initial inoculum was prepared by culturing aerobic bacteria in Tryptic Soy Broth (TSB) overnight at 37° C. Broths were subsequently centrifuged at 1000 rpm for 15 min, and resuspended in TSB with 15% glycerol, or chopped meat extract with 15% glycerol (for aerobic bacteria). The concentration was adjusted to 10^6 cfu/50 μl, and stored at −80° C. Prior to wound application, […]

MRSA [5] = conditions: 24 h
[6] = In vivo toxicity of TP3, intramuscular injection, blood biochemistry; conditions: mice, i.m. 2 mg/mouse
Protocol: To determine the toxicity of TP3, TP3 was dissolved in phosphate-buffered saline (PBS; pH 7.4) and administered as intramuscular bolus injections in the left thigh (2 mg/mouse). […] To study the effect of treatment on biochemistry, mice (n=6 in each group) were treated with PBS (control). Blood samples (0.2 ml) were collected day 1, 3 and 6 after the final injection of TP3, and used to determine the serum levels of glutamic oxaloacetic transaminase (GOT), glutamic pyruvic transaminase (GPT), blood urea nitrogen (BUN), creatinine (CRE), total glucose (GLU), and creatine phosphokinase (CPK).

SMILES	Mean ± SD count, Blood (MRSA [1])	Mean ± SD count, Liver (MRSA [1])	Mean ± SD count, Mesenteric lymph nodes (MRSA [1])	Mean ± SD count, Peritoneum (MRSA [1])	Mean ± SD count, Spleen (MRSA [1])	survival rate (MRSA [1])	% lethality (MRSA [1])	Mean ± SD count, Blood (MRSA [3])	Mean ± SD count, Liver (MRSA [3])	Mean ± SD count, Mesenteric lymph nodes (MRSA [3])	Mean ± SD count, Peritoneum (MRSA [3])	Mean ± SD count, Spleen (MRSA [3])	survival rate (MRSA [3])	% lethality (MRSA [3])	Bacterial Count (MRSA [4]; day 0)	Bacterial Count (MRSA [4]; day 5)	further results
CN[C@H](CC(C)C)C(=O)N[C@H]1C(=O)N[C@@H](CC(N)=O)C(=O)N[C@H]2C(=O)N[C@H]3C(=O)N[C@H](C(=O)N[C@H](C(=O)O)c4cc(O)cc(O)c4-c4cc3ccc4O)[C@H](O)c3ccc(c(Cl)c3)Oc3cc2cc(c3O[C@@H]2O[C@H](CO)[C@@H](O)[C@H](O)[C@H]2O[C@H]2C[C@](C)(N)[C@H](O)[C@H](C)O2)Oc2ccc(cc2Cl)[C@H]1O [vancomycin]	8 × 10^3 ± 1.3 × 10^5B CFU/ml	1.7 × 10^8 ± 3.8 × 10^7B CFU/ml	2 × 10^8 ± 4.4 × 10^6A CFU/ml	2.7 × 10^9 ± 1.5 × 10^9A CFU/ml	1.8 × 10^3 ± 8.4 × 10^7B CFU/ml	80%	0^A %	8 × 10^4 ± 1.1 × 10^4B CFU/mL	1.3 × 10^7 ± 1.8 × 10^3B CFU/mL	1 × 10^7 ± 4 × 10^4B CFU/mL	1.5 × 10^6 ± 1 × 10^3A CFU/mL	1.4 × 10^7 ± 1.1 × 10^4B CFU/mL	80%	10^AB %	4.9 × 10^4 CFU/10 μl	2.6 × 10^3 CFU/10 μl	overall epidermal maturation compared to the TP3 group (MRSA [2]): displayed impairment in overall epidermal maturation; Bacterial Count (MRSA [4]; day 3): 3 × 10^5 CFU/10 μl; Bacterial Count (MRSA [4]; day 19): 42 CFU/10 μl
COc1cccc(OC)c1C(=O)N[C@@H]1C(=O)N2[C@@H]1SC(C)(C)[C@@H]2C(=O)O [methicillin]	5.8 × 10^7 ± 1.7 × 10^7B CFU/ml	3.7 × 10^8 ± 8.1 × 10^7B CFU/ml	6.4 × 10^7 ± 5.3 × 10^7B CFU/ml	4.9 × 10^9 ± 2.2 × 10^9B CFU/ml	9.5 × 10^8 ± 1.9 × 10^8B CFU/ml	0%	20^B %	4.1 × 10^7 ± 1.3 × 10^7B CFU/mL	2.7 × 10^8 ± 3.3 × 10^8B CFU/mL	4.1 × 10^7 ± 3 × 10^7C CFU/mL	2.3 × 10^9 ± 2 × 10^9B CFU/mL	1.5 × 10^8 ± 2.1 × 10^7B CFU/mL	0%	20^B %	5.2 × 10^4 CFU/10 μl	Fatal	–
CC[C@H](C)[C@H](NC(=O)[C@H](CC(C)C)NC(=O)[C@H](CO)NC(=O)[C@H](Cc1c[nH]cn1)NC(=O)[C@@H](NC(=O)[C@H](Cc1c[nH]cn1)NC(=O)[C@H](CCCCN)NC(=O)CNC(=O)[C@@H](NC(=O)[C@H](CO)NC(=O)[C@H](Cc1ccccc1)NC(=O)[C@H](CC(C)C)NC(=O)CNC(=O)CNC(=O)[C@@H](NC(=O)[C@@H](NC(=O)[C@H](Cc1c[nH]cn1)NC(=O)[C@H](Cc1c[nH]cn1)NC(=O)[C@@H](NC(=O)[C@@H](N)Cc1ccccc1)[C@@H](C)CC)[C@@H](C)CC)[C@@H](C)CC)C(C)C)[C@@H](C)CC)C(=O)N[C@@H](Cc1c[nH]cn1)C(=O)NCC(=O)N[C@@H](Cc1c[nH]cn1)C(=O)O [TP3, Tilapia piscidin 3] (H-FIHHIIGGLFSVGKHIHSLIHGH-OH)	–	–	–	–	–	–	–	–	–	–	–	–	–	–	–	–	minimal inhibitory concentration (MIC) (MRSA [5]): > 3.9 µg/mL; BUN ([6]; day 1): 15.2 ± 2.4^A mg/dl; CPK ([6]; day 1): 114 ± 21.9^A U/l; GLU ([6]; day 1): 258.6 ± 28.2^AB mg/dl; GOT ([6]; day 1): 122.6 ± 25.7^C U/l; GPT ([6]; day 1): 71.3 ± 8.6^C U/l; BUN ([6]; day 3): 17.4 ± 2.3^A mg/dl; CPK ([6]; day 3): 88.3 ± 5.8^B U/l; GLU ([6]; day 3): 219.8 ± 8.2^A mg/dl; GOT ([6]; day 3): 47.3 ± 5.9^A U/l; GPT ([6]; day 3): 36.2 ± 2.7^AB U/l; BUN ([6]; day 6): 20.2 ± 1.8^AB mg/dl; CPK ([6]; day 6): 129 ± 15.3^AB U/l; GLU ([6]; day 6): 290.8 ± 53.5^B mg/dl; GOT ([6]; day 6): 46 ± 8.08^A U/l; GPT ([6]; day 6): 35 ± 5.9^AB U/l
